The test system of series [1] is caspase-3 and -7 activities in RS4-11 cells. The experiment in a line: Cas-3/7 activation (Caspase-Glo 3/7) in RS4-11 cells. In kind it is cell-based. Conditions: Homo sapiens, 3.5 h at 37° C. and 30 min at r.t., read-out: Cas-3/7 (EC50 code). The method, boiled down: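 RS4-11 cells were exposed to graded compound concentrations for 3.5 h at 37° C/5% CO2, then 30 min at room temperature. Caspase-3/7 activity was measured by luminescence after 30 min with a DEVD luminogenic substrate reagent.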

Series [2] can be described thus: Cell viability assay HEK293 (CellTiter-Glo). In kind it is cell-based. Conditions: human, HEK293 cells, read-out: HEK293 (CC50 code). The method, boiled down:
(§1)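 Cells were seeded at 2000/well (HEK293, in DMEM, pre-incubated a day) or 4000/well (other lines, in RPMI-1640). Serially diluted compound was added and plates incubated 3 days at 37 °C, with viability read by CellTiter-Glo luminescence.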

Series [3] relates to MOLT-4 cells. The experiment in a line: Cell viability assay MOLT-4 (CellTiter-Glo). In kind it is cell-based. The conditions noted are these: Homo sapiens, 72 h; MOLT-4 cells, 3 days, CellTiter-Glo; read-out: MOLT-4 (CC50 code). Summed up: as §1
(In ATP-based viability assays light output follows the ATP content of the culture.)

For series [4], the target named is T1, BCL-2 (Homo sapiens, UniProt P10415).
T1 construct: purchased BPS Bioscience #50222
The experiment in a line: BCL-2 TR-FRET Assay (primary PPI inhibition). The series is classed as binding. The conditions noted are these: 60 min incubation; read-out: BCL2 (IC50 code, BCL-2 TR-FRET). Background: In TR-FRET formats the signal depends on donor and acceptor labels being close together.

Series [5] concerns the target T2, BCL-XL (Homo sapiens, UniProt Q07817).
T2 construct: purchased BPS Bioscience #50223
The experiment in a line: BCL-XL TR-FRET Assay (primary PPI inhibition). The series is classed as binding. The conditions noted are these: 60 min incubation; read-out: BCLxL (IC50 code, BCL-XL TR-FRET). The method, boiled down:
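10.5 ng His-tagged BCL-XL incubated 60 min with test compound, BCL-XL peptide ligand (1:80), Tb-labelled anti-His donor and dye-labelled acceptor (each 1:100). Displacement read as TR-FRET, excitation 340 nm, emission 620 and 665 nm, 60 μs delay, 500 μs integration.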

The test system of series [6] is RS4-11 cells. The experiment in a line: Cell viability assay RS4-11 (CellTiter-Glo). Conditions: Homo sapiens, 72 h; RS4-11 cells, 3 days, CellTiter-Glo; read-out: RS4-11 (CC50 code). The series is classed as cell-based. The method, boiled down: as §1

These results are taken from US11834450B2, “Compounds having ((3-nitrophenyl)sulfonyl)acetamide as BCL-2 inhibitors” (Eil Therapeutics, Inc., priority 2021, dated 2023).

Some results are limits rather than exact numbers.

T2 sequence (Q07817 whole entry): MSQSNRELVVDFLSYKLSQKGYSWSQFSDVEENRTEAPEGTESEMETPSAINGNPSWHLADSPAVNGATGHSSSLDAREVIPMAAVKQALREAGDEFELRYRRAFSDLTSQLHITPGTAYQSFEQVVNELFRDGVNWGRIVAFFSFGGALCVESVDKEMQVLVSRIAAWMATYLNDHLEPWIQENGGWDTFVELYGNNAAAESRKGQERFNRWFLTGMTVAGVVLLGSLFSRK
T1 sequence (P10415 whole entry): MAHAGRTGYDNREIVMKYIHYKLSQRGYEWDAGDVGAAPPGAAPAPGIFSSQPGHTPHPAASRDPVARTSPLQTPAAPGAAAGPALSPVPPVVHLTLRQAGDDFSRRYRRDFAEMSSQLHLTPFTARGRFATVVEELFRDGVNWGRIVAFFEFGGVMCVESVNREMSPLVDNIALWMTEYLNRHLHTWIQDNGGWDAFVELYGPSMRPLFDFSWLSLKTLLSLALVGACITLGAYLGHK

Usually CC50 stands for the concentration at which the toxic effect on the cells reaches its halfway point. By IC50 is commonly meant the point on the concentration scale where inhibition reaches its midpoint. With `O=C(NS(=O)(=O)c1ccc(NCC2CCOCC2)c([N+](=O)[O-])c1)c1ccc(N2CCN(CC34CC(O)CCC3(c3ccc(Cl)cc3)C4)CC2)cc1Oc1cnc2[nH]ccc2c1` (stereo not drawn) [Compound 80, 4-[4-[[6-(4-chlorophenyl)-3-hydroxy-norcaran-1-yl]methyl]piperazin-1-yl]-N-[3-nitro-4-(tetrahydropyran-4-ylmethylamino)phenyl]sulfonyl-2-(1H-pyrrolo[2,3-b]pyridin-5-yloxy)benzamide], the EC50 in series [1] was greater than 0.25 µM. Also, in series [2], the 50% cytotoxic concentration (CC50) at 3 days fell in the range of 10 to 25 µM. The CC50 was greater than 10 µM in series [3] and greater than 0.2 µM in series [6]. Also, the results for the half-maximal inhibitory concentration (IC50) in series [4] and in series [5] were greater than 0.05 µM and no more than 2 µM, respectively.
